Reference: PubChem BioAssay AID248 (DTP/NCI, 2004)
Several values for one entry are separate records, joined by “and”; a condition that tells them apart may be missing. Identical values can stand only once. Inconclusive results and toxic doses are left out. Rule as the data show it: active = T/C of 150% or more; inactive = T/C below 125%.

System: L1210 leukemia ip in BDF1 mice, survival T/C
Assay: NCI In Vivo Anticancer Drug Screen. Data for tumor model L1210 Leukemia (intraperitoneal) in B6D2F1 (BDF1) mice
Conditions: endpoint: mean survival time, higher = longer survival
How it was run: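 Mice bearing the transplanted tumor received compound or vehicle. Survival of the treated group was divided by that of the vehicle-treated control group to give the ratio.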

[1] = dose: 100.0 mg/kg/injection, schedule: Q01DX009 (ip), vehicle: saline
[2] = dose: 150.0 mg/kg/injection, schedule: Q01DX009 (ip), vehicle: saline
[3] = dose: 400.0 mg/kg/injection, schedule: Q01DX001 (ip), vehicle: saline
[4] = dose: 400.0 mg/kg/injection, schedule: Q04DX002 (ip), vehicle: saline
[5] = dose: 100.0 mg/kg/injection, schedule: Q04DX003 (ip), vehicle: Klucel (hydroxypropylcellulose) (HPC)
[6] = dose: 200.0 mg/kg/injection, schedule: Q04DX003 (ip), vehicle: Klucel (hydroxypropylcellulose) (HPC)
[7] = dose: 100.0 mg/kg/injection, schedule: Q01DX001 (ip), vehicle: saline
[8] = dose: 50.0 mg/kg/injection, schedule: Q01DX009 (ip), vehicle: saline with Tween-80
[9] = dose: 100.0 mg/kg/injection, schedule: Q01DX009 (ip), vehicle: saline with Tween-80
[10] = dose: 200.0 mg/kg/injection, schedule: Q01DX009 (ip), vehicle: saline with Tween-80
[11] = dose: 400.0 mg/kg/injection, schedule: Q01DX009 (ip), vehicle: saline with Tween-80

Measured: T/C

COc1ccc(C(=O)N/N=C/c2cccc(OC)c2OC)cc1
inactive: dose: 45.0 mg/kg/injection, schedule: Q01DX009 (ip), vehicle: saline 98 % of control | dose: 65.0 mg/kg/injection, schedule: Q01DX009 (ip), vehicle: saline 98 % of control | dose: 85.0 mg/kg/injection, schedule: Q04DX003 (ip), vehicle: saline 93 % of control | [1] 102 % of control | dose: 100.0 mg/kg/injection, schedule: Q04DX002 (ip), vehicle: Klucel (hydroxypropylcellulose) (HPC) 104 % of control and 105 % of control | dose: 130.0 mg/kg/injection, schedule: Q04DX003 (ip), vehicle: saline 93 % of control | [2] 95 % of control | dose: 175.0 mg/kg/injection, schedule: Q01DX001 (ip), vehicle: saline 104 % of control | dose: 175.0 mg/kg/injection, schedule: Q04DX002 (ip), vehicle: saline 91 % of control | dose: 200.0 mg/kg/injection, schedule: Q04DX002 (ip), vehicle: Klucel (hydroxypropylcellulose) (HPC) 101 % of control and 104 % of control | dose: 200.0 mg/kg/injection, schedule: Q04DX003 (ip), vehicle: saline 93 % of control | dose: 265.0 mg/kg/injection, schedule: Q01DX001 (ip), vehicle: saline 107 % of control | dose: 265.0 mg/kg/injection, schedule: Q04DX002 (ip), vehicle: saline 102 % of control | dose: 300.0 mg/kg/injection, schedule: Q04DX003 (ip), vehicle: saline 102 % of control | [3] 96 % of control | [4] 96 % of control | dose: 600.0 mg/kg/injection, schedule: Q01DX001 (ip), vehicle: saline 102 % of control | dose: 600.0 mg/kg/injection, schedule: Q04DX002 (ip), vehicle: saline 106 % of control

CC(=O)SC1CS(=O)(=O)CC1SC(C)=O (centres undefined)
inactive: [5] 93 % of control | [6] 101 % of control

O=C(O)CC(C(=O)O)C1CCCC1 (centres undefined)
inactive: dose: 75.0 mg/kg/injection, schedule: Q01DX001 (ip), vehicle: saline 102 % of control | dose: 150.0 mg/kg/injection, schedule: Q01DX001 (ip), vehicle: saline 94 % of control | dose: 300.0 mg/kg/injection, schedule: Q01DX001 (ip), vehicle: saline 92 % of control

CC1CCCC(C)C1O (centres undefined)
inactive: [7] 103 % of control | dose: 200.0 mg/kg/injection, schedule: Q01DX001 (ip), vehicle: saline 101 % of control | [3] 103 % of control

CCCCCCCCCCCCCCSCCSCCSCCCCCCCCCCCCCC
inactive: dose: 12.5 mg/kg/injection, schedule: Q01DX001 (ip), vehicle: Klucel (hydroxypropylcellulose) (HPC) 103 % of control | dose: 25.0 mg/kg/injection, schedule: Q01DX001 (ip), vehicle: Klucel (hydroxypropylcellulose) (HPC) 97 % of control | dose: 50.0 mg/kg/injection, schedule: Q01DX001 (ip), vehicle: Klucel (hydroxypropylcellulose) (HPC) 89 % of control | dose: 400.0 mg/kg/injection, schedule: Q01DX001 (ip), vehicle: Klucel (hydroxypropylcellulose) (HPC) 87 % of control

NC(Cc1cn(Cc2ccccc2)cn1)C(=O)O (centres undefined)
inactive: dose: 12.5 mg/kg/injection, schedule: Q04DX003 (ip), vehicle: saline 109 % of control | dose: 25.0 mg/kg/injection, schedule: Q04DX003 (ip), vehicle: saline 89 % of control | dose: 50.0 mg/kg/injection, schedule: Q04DX003 (ip), vehicle: saline 106 % of control

Cc1nc(C#N)c(C#N)nc1C
inactive: dose: 6.25 mg/kg/injection, schedule: Q01DX009 (ip), vehicle: Klucel (hydroxypropylcellulose) (HPC) 96 % of control | dose: 12.5 mg/kg/injection, schedule: Q01DX009 (ip), vehicle: Klucel (hydroxypropylcellulose) (HPC) 98 % of control | dose: 12.5 mg/kg/injection, schedule: Q04DX003 (ip), vehicle: Klucel (hydroxypropylcellulose) (HPC) 101 % of control | dose: 25.0 mg/kg/injection, schedule: Q04DX003 (ip), vehicle: Klucel (hydroxypropylcellulose) (HPC) 100 % of control

COc1ccccc1NC(=O)NCCCCCCNC(=O)Nc1ccccc1OC
inactive: dose: 100.0 mg/kg/injection, schedule: Q01DX009 (ip), vehicle: Klucel (hydroxypropylcellulose) (HPC) 89 % of control | dose: 200.0 mg/kg/injection, schedule: Q01DX009 (ip), vehicle: Klucel (hydroxypropylcellulose) (HPC) 92 % of control | dose: 400.0 mg/kg/injection, schedule: Q01DX009 (ip), vehicle: Klucel (hydroxypropylcellulose) (HPC) 94 % of control

N#CC(=C(c1ccccc1)c1ccccc1)c1ccccc1
inactive: [5] 108 % of control | [6] 108 % of control | dose: 400.0 mg/kg/injection, schedule: Q04DX003 (ip), vehicle: Klucel (hydroxypropylcellulose) (HPC) 106 % of control

CCN1C(=O)CN(CCN2CC(=O)N(c3ccccc3)C2=S)C1=S
inactive: [8] 94 % of control | [9] 102 % of control | [10] 90 % of control

O=C(OCCCl)c1ccc([N+](=O)[O-])cc1
inactive: dose: 100.0 mg/kg/injection, schedule: Q04DX003 (ip), vehicle: saline with Tween-80 95 % of control | dose: 200.0 mg/kg/injection, schedule: Q04DX003 (ip), vehicle: saline with Tween-80 95 % of control | dose: 400.0 mg/kg/injection, schedule: Q04DX003 (ip), vehicle: saline with Tween-80 102 % of control

CCC(C(N)=O)C1=CCCCC1 (centres undefined)
inactive: [9] 95 % of control | [10] 93 % of control | [11] 98 % of control

CC(=O)Nc1cccc2c1Cc1cc([N+](=O)[O-])ccc1-2
inactive: dose: 50.0 mg/kg/injection, schedule: Q04DX003 (ip), vehicle: Klucel (hydroxypropylcellulose) (HPC) 93 % of control | dose: 100.0 mg/kg/injection, schedule: Q01DX001 (ip), vehicle: carboxymethylcellulose (CMC) 92 % of control | [5] 93 % of control | dose: 200.0 mg/kg/injection, schedule: Q01DX001 (ip), vehicle: carboxymethylcellulose (CMC) 92 % of control | [6] 94 % of control | dose: 400.0 mg/kg/injection, schedule: Q01DX001 (ip), vehicle: carboxymethylcellulose (CMC) 87 % of control

c1ccc(C(C(=Nc2ccc(Cc3ccc(N=C(C(c4ccccc4)c4ccccc4)N4CC4)cc3)cc2)N2CC2)c2ccccc2)cc1
inactive: dose: 70.0 mg/kg/injection, schedule: Q01DX009 (ip), vehicle: saline 103 % of control | dose: 140.0 mg/kg/injection, schedule: Q01DX009 (ip), vehicle: saline 104 % of control | dose: 280.0 mg/kg/injection, schedule: Q01DX009 (ip), vehicle: saline 93 % of control

N#CCCO
inactive: dose: 25.0 mg/kg/injection, schedule: Q04DX002 (ip), vehicle: saline 98 % of control | dose: 50.0 mg/kg/injection, schedule: Q04DX002 (ip), vehicle: saline 101 % of control | dose: 100.0 mg/kg/injection, schedule: Q04DX002 (ip), vehicle: saline 110 % of control and 121 % of control | dose: 200.0 mg/kg/injection, schedule: Q04DX002 (ip), vehicle: saline 96 % of control | [4] 108 % of control

C[n+]1c(I)ccc2ccccc21
inactive: dose: 100.0 mg/kg/injection, schedule: Q01DX001 (ip), vehicle: other 105 % of control | dose: 200.0 mg/kg/injection, schedule: Q01DX001 (ip), vehicle: other 105 % of control | dose: 400.0 mg/kg/injection, schedule: Q01DX001 (ip), vehicle: other 110 % of control

COC(=O)C1=C(O)CN(C)C1=O
inactive: dose: 12.5 mg/kg/injection, schedule: Q01DX001 (ip), vehicle: saline 98 % of control | dose: 25.0 mg/kg/injection, schedule: Q01DX001 (ip), vehicle: saline 93 % of control | dose: 25.0 mg/kg/injection, schedule: Q01DX009 (ip), vehicle: saline 101 % of control | dose: 50.0 mg/kg/injection, schedule: Q01DX001 (ip), vehicle: saline 91 % of control | dose: 50.0 mg/kg/injection, schedule: Q01DX009 (ip), vehicle: saline 103 % of control | [7] 86 % of control | [1] 96 % of control | [2] 94 % of control

CCCCCCCCCCCCCCCCCCNC(=S)SCCCC
inactive: dose: 400.0 mg/kg/injection, schedule: Q04DX002 (ip), vehicle: saline + alcohol 100 % of control

Clc1ccc(N=Cc2ccccc2Cl)cc1
inactive: [9] 94 % of control | [10] 92 % of control | [11] 89 % of control

Cc1cccc(NC(=O)NCC(=O)N/N=C/c2cccc([N+](=O)[O-])c2)n1
inactive: [8] 93 % of control | [9] 90 % of control | [10] 88 % of control
